# Measurements taken from article PMC9743148 (Annals of oncology : official journal of the European …, 2020).
# System: patients with advanced solid tumors
# Assay: Treatment-emergent adverse events
# Assay type: in vivo, human
# Conditions: Combined q.d. cohorts (n = 44)
compound,measurement,value
C=CC(=O)N1CC[C@H](n2nc(C#Cc3cc(OC)cc(OC)c3)c3c(N)ncnc32)C1 [futibatinib],"ALT increased TEAE, Any grade",11 (25) n (%)
same,"ALT increased TEAE, Grade 1",4 (9) n (%)
same,"ALT increased TEAE, Grade 2",4 (9) n (%)
same,"ALT increased TEAE, Grade 3",3 (7) n (%)
same,"ALT increased TEAE, Grade 4",0 (0) n (%)
same,"AST increased TEAE, Any grade",11 (25) n (%)
same,"AST increased TEAE, Grade 1",4 (9) n (%)
same,"AST increased TEAE, Grade 2",5 (11) n (%)
same,"AST increased TEAE, Grade 3",2 (5) n (%)
same,"AST increased TEAE, Grade 4",0 (0) n (%)
same,"Abdominal pain TEAE, Any grade",6 (14) n (%)
same,"Abdominal pain TEAE, Grade 1",1 (2) n (%)
same,"Abdominal pain TEAE, Grade 2",4 (9) n (%)
same,"Abdominal pain TEAE, Grade 3",1 (2) n (%)
same,"Abdominal pain TEAE, Grade 4",0 (0) n (%)
same,"Alopecia TEAE, Any grade",6 (14) n (%)
same,"Alopecia TEAE, Grade 1",6 (14) n (%)
same,"Alopecia TEAE, Grade 2",0 (0) n (%)
same,"Alopecia TEAE, Grade 3",0 (0) n (%)
same,"Alopecia TEAE, Grade 4",0 (0) n (%)
same,"Anemia TEAE, Any grade",9 (20) n (%)
same,"Anemia TEAE, Grade 1",1 (2) n (%)
same,"Anemia TEAE, Grade 2",6 (14) n (%)
same,"Anemia TEAE, Grade 3",2 (5) n (%)
same,"Anemia TEAE, Grade 4",0 (0) n (%)
same,"Any TEAE, Any grade",44 (100) n (%)
same,"Any TEAE, Grade 1",5 (11) n (%)
same,"Any TEAE, Grade 2",11 (25) n (%)
same,"Any TEAE, Grade 3",21 (48) n (%)
same,"Any TEAE, Grade 4",3 (7) n (%)
same,"Any treatment-related AE, Any grade",41 (93) n (%)
same,"Any treatment-related AE, Grade 1",13 (30) n (%)
same,"Any treatment-related AE, Grade 2",11 (25) n (%)
same,"Any treatment-related AE, Grade 3",16 (36) n (%)
same,"Any treatment-related AE, Grade 4",1 (2) n (%)
same,"Asthenia TEAE, Any grade",9 (20) n (%)
same,"Asthenia TEAE, Grade 1",3 (7) n (%)
same,"Asthenia TEAE, Grade 2",6 (14) n (%)
same,"Asthenia TEAE, Grade 3",0 (0) n (%)
same,"Asthenia TEAE, Grade 4",0 (0) n (%)
same,"Back pain TEAE, Any grade",5 (11) n (%)
same,"Back pain TEAE, Grade 1",3 (7) n (%)
same,"Back pain TEAE, Grade 2",2 (5) n (%)
same,"Back pain TEAE, Grade 3",0 (0) n (%)
same,"Back pain TEAE, Grade 4",0 (0) n (%)
same,"Constipation TEAE, Any grade",18 (41) n (%)
same,"Constipation TEAE, Grade 1",13 (30) n (%)
same,"Constipation TEAE, Grade 2",4 (9) n (%)
same,"Constipation TEAE, Grade 3",1 (2) n (%)
same,"Constipation TEAE, Grade 4",0 (0) n (%)
same,"Cough TEAE, Any grade",5 (11) n (%)
same,"Cough TEAE, Grade 1",5 (11) n (%)
same,"Cough TEAE, Grade 2",0 (0) n (%)
same,"Cough TEAE, Grade 3",0 (0) n (%)
same,"Cough TEAE, Grade 4",0 (0) n (%)
same,"Decreased appetite TEAE, Any grade",7 (16) n (%)
same,"Decreased appetite TEAE, Grade 1",5 (11) n (%)
same,"Decreased appetite TEAE, Grade 2",2 (5) n (%)
same,"Decreased appetite TEAE, Grade 3",0 (0) n (%)
same,"Decreased appetite TEAE, Grade 4",0 (0) n (%)
same,"Diarrhea TEAE, Any grade",15 (34) n (%)
same,"Diarrhea TEAE, Grade 1",9 (20) n (%)
same,"Diarrhea TEAE, Grade 2",5 (11) n (%)
same,"Diarrhea TEAE, Grade 3",1 (2) n (%)
same,"Diarrhea TEAE, Grade 4",0 (0) n (%)
same,"Dose reduction because of TEAE, Any grade",8 (18) n (%)
same,"Dose reduction because of TEAE, Grade 1",0 (0) n (%)
same,"Dose reduction because of TEAE, Grade 2",1 (2) n (%)
same,"Dose reduction because of TEAE, Grade 3",6 (14) n (%)
same,"Dose reduction because of TEAE, Grade 4",1 (2) n (%)
same,"Dosing delay/interruption because of TEAE, Any grade",26 (59) n (%)
same,"Dosing delay/interruption because of TEAE, Grade 1",1 (2) n (%)
same,"Dosing delay/interruption because of TEAE, Grade 2",9 (20) n (%)
same,"Dosing delay/interruption because of TEAE, Grade 3",16 (36) n (%)
same,"Dosing delay/interruption because of TEAE, Grade 4",0 (0) n (%)
same,"Dry eye TEAE, Any grade",5 (11) n (%)
same,"Dry eye TEAE, Grade 1",4 (9) n (%)
same,"Dry eye TEAE, Grade 2",1 (2) n (%)
same,"Dry eye TEAE, Grade 3",0 (0) n (%)
same,"Dry eye TEAE, Grade 4",0 (0) n (%)
same,"Dry mouth TEAE, Any grade",11 (25) n (%)
same,"Dry mouth TEAE, Grade 1",10 (23) n (%)
same,"Dry mouth TEAE, Grade 2",1 (2) n (%)
